In US11390617B2, “Methods of treating non-Hodgkin lymphoma using 2-(2,6-dioxopiperidin-3-yl)-4-((2-fluoro-4-((3-morpholinoazetidin-1-yl)methyl)benzyl)amino)isoindoline-1,3-dione” (Celgene Corporation, priority 2019, dated 2022):

What was measured:
[1] = tested on: lymphoma cell lines WSU-DLCL2, SU-DHL6, and RL; assay: NK mediated cell killing (ADCC) with rituximab; type: cell-based, human; conditions: NK cells pre-treated with Compound 1 100 nM 18 hours; rituximab 7.5 ug/mL, 4 hours
Protocol: Commercial purified NK cells isolated from human peripheral blood mononuclear cell (PBMC) were seeded at a concentration of 10^6 cells/mL, cultured in media supplemented with 10 ng/mLrhIL-2 and treated with Compound 1 (100 nM) for 18 hours at 37° C. prior to cytotoxicity assays. Target lymphoma cell lines were added to the pre-treated effector NK cells at a 1:10 (target:effector) cell ratio for WSU-DLCL2 and RL lines or 1:3 for SU-DHL6. At the time of co-culture, rituximab or isotype control at 7.5 ug/mL were added to the media and cells were incubated for 4 hours at 37° C. Then, cells were collected, stained with CD20, Annexin V and 7AAD and analyzed by FACS.

[2] = tested on: OCI-LY10-Luc CNS DLBCL xenograft; assay: OCI-LY10-Luc CNS lymphoma xenograft model (intracranial); type: in vivo, Nude (nu/nu) mice; conditions: for % BLI Inhibition on Day 26 / Median Survival: 3 weeks; for % BLI Inhibition on Day 26: relative to vehicle control; for Median Survival: vehicle 35 days
Protocol: Antitumor activity of Compound 1 was evaluated as a single agent in OCI-LY10-luc diffuse large B-cell lymphoma (DLBCL) xenografted intracranially into nude mice as a model for central nervous system (CNS) lymphoma.
CNS lymphoma study was conducted with OCI-LY-10 cells transfected with luciferase (OCI-LY-10-Luc). Nude (nu/nu) mice were inoculated intracranially into the right cerebral hemisphere of the brain with OCI-LY10-Luc cells. Following inoculation of animals, the tumors were allowed to grow for 5 days. On day 5 following tumor cell inoculation, the mice were imaged using IVIS100 imaging system. The mice having tumors with an average flux ranging between 1×10^7 and 2×10^7 photons/sec were pooled together and randomized into various treatment groups. Compound 1 was formulated in 0.5% Methyl Cellulose, 0.25% Tween 80 and 50 mM Citrate pH 3 (MCT) in water. The animals were orally administered vehicle (MCT) or Compound 1 once daily (QD) for 3 weeks. Doses of Compound 1 ranged between 3 and 30 mg/kg. The positive control pomalidomide (30 mg/kg, QD) formulated in aqueous 0.5% CMC and 0.25% Tween-80 was administered PO. The animals were imaged for bioluminescence once a week using IVIS100 imaging system and monitored for survival. Statistical analysis was performed using a log-rank test between Compound 1-treated and vehicle-treated control groups.

[3] = tested on: RL follicular lymphoma xenograft tumors; assay: RL (follicular lymphoma) xenograft model, alone and in combination with rituximab; type: in vivo, female SCID mice; conditions: Compound 1 0.3 mg/kg oral, 5 days on 2 days off for 3 weeks, single agent
Protocol: Female 6- to 8-weeks-old CB17 SCID mice were obtained from Charles River Laboratories. Mice were housed in a barrier facility in micro-isolator cages at 10 animals per cage. Mice were fed with Harlan-Teklad LM-485 Mouse/Rat Sterilizable Diet and autoclaved water ad libitum and maintained on a 12 hours light-dark cycle. Animals were acclimatized to the animal housing facility for a period of 7 days before the beginning of the experiment. All animal studies were performed under protocols approved by Institutional Animal Care and Use Committees.
Suspensions of Compound 1 were pared in aqueous 0.5% Methyl Cellulose, 0.25% Tween 80 and 50 mM Citrate pH 3. […]
Tumor cells were injected subcutaneously in the flank region above the right hind legs of female CB17 SCID mice. […] Tumor volumes were determined before the initiation of treatment and were considered as the starting volumes. Tumors were measured twice a week for the duration of the study. The long and short axes of each tumor were measured using a digital caliper in millimeters. The tumor volumes were calculated using the formula: width^2×length/2. […]
Xenograft data are expressed as mean±SEM. […]
Xenograft study was conducted with female SCID mice bearing RL follicular lymphoma xenograft tumors. […] Tumors were measured twice a week using calipers and tumor volumes were calculated using the formula of W^2×L/2. […]

[4] = tested on: lymphoma cell lines WSU-DLCL2, SU-DHL6 and RL; assay: Macrophage mediated phagocytosis (ADCP) with rituximab; type: cell-based; conditions: macrophages treated with Compound 1 10 nM 48 hours, 3 hours
Protocol: Monocyte-derived macrophages (MDM) were generated by plating 8×10^6 commercial monocytes isolated from PBMC in RPMI media supplemented with 10% FBS, 1% L-glutamine and 60 ng/mL macrophage colony-stimulating factor (M-CSF) during 6 to 7 days. Then, MDM were treated with Compound 1 (10 nM) or DMSO control and cultured for an additional 48 hours prior to the assay. Lymphoma cell lines WSU-DLCL2, SU-DHL6 and RL were stained with CellTrace CFSE at 200 nM in PBS for 5 minutes at room temperature and added to the MDM cultures. At the time of co-culture, rituximab or isotype control were added to the media and cells were incubated at 37° C. during 3 hours. At the end of culture, cells were stained with anti-CD14 APC and images were acquired in Operetta. Phagocytosis index was calculated as cells positive for CFSE (green) and CD14 (red).

SMILES: O=C1CC[C@H](N2C(=O)c3cccc(NCc4ccc(CN5CC(N6CCOCC6)C5)cc4F)c3C2=O)C(=O)N1 [Compound 1, (S)-2-(2,6-dioxopiperidin-3-yl)-4-((2-fluoro-4-((3-morpholinoazetidin-1-yl)methyl)benzyl)amino)isoindoline-1,3-dione]
- rituximab cytotoxicity of lymphoma cell lines (NK mediated cell killing, ADCC) [1]: able to increase rituximab cytotoxicity of lymphoma cell lines
- % BLI Inhibition on Day 26 ([2]; 3 mg/kg QD oral): 97.2%
- Median Survival ([2]; 3 mg/kg QD oral): 61 days
- % BLI Inhibition on Day 26 ([2]; 10 mg/kg QD oral): 99.1%
- Median Survival ([2]; 10 mg/kg QD oral): 69 days
- animals survived with no detectable bioluminescence signal ([2]; 10 mg/kg, day 120 (2/9)): 22.2%
- % BLI Inhibition on Day 26 ([2]; 30 mg/kg QD oral): 99.5%
- Median Survival ([2]; 30 mg/kg QD oral): 97 days
- animals survived with no detectable bioluminescence signal ([2]; 30 mg/kg, day 120 (3/9)): 33.3%
- tumor volume reduction [3]: 36%
- phagocytosis of lymphoma cell lines mediated by macrophages (ADCP) [4]: enhances phagocytosis of lymphoma cell lines mediated by macrophages
